Legend:
[1] = Solvent stability: strontium distribution ratios as a function of contact time with 1.5 M HNO3; assay type: physicochemical
Method: The stability of the mixed extractant solvents prepared using dialkyloxycalix[4]arenebenzocrown-6 compounds (MC-8, MC-8B, MC-10, MC-10B, MC-12, or MC-12B) relative to BOBCalixC6 in the FPEX I process solvent was determined. Samples were prepared using each of the dialkyloxycalix[4]arenebenzocrown-6 compounds and contacted with 1.5 M HNO3. The samples included 0.007 M of the respective dialkyloxycalix[4]arenebenzo-crown-6 compound (MC-8, MC-8B, MC-10, MC-10B, MC-12, or MC-12B), 0.075 M DtBuCH18C6, 0.75 M Cs-7SB modifier, and 0.003 M TOA in ISOPAR® L. The stability of the dialkyloxycalix[4]arene-benzocrown-6 based solvents was evaluated by measuring the cesium and strontium distribution ratios as a function of contact time. These cesium and strontium distribution ratios for the mixed extractant solvents are presented in Table 9 and Table 10, respectively, along with the cesium and strontium distribution ratios for the FPEX I process solvent. The symbol “-” is used in Tables 9 and 10 to indicate no data was collected.
This degradation is likely due to chemical attack or nitration of the BOBCalixC6 in the FPEX I process solvent. […] However, it is difficult to compare the relative extents of degradation. In order to compare the different extractants, the distribution ratio data presented in Tables 9 and 10 were normalized to the values obtained at t=0 days contact. The normalized cesium and strontium distribution ratios for the FPEX I process solvent and the mixed extractant solvents as a function of contact time are presented in FIGS. 2 and 3, respectively.

[2] = Solubility of the calixarene in the extractant solvent; assay type: physicochemical

## CCCCCCCCOc1c2cccc1Cc1cccc3c1OCCOCCOc1ccccc1OCCOCCOc1c(cccc1Cc1cccc(c1OCCCCCCCC)C3)C2 [MC-8, 1,3-alternate-25,27-di(octyloxy)calix[4]arenebenzocrown-6]
[1]; contact time 0 days with 1.5 M HNO3, 0.007 M calixarene, 0.075 M DtBuCH18C6, 0.75 M Cs-7SB, 0.003 M TOA in ISOPAR L
  Strontium distribution ratio as a function of contact time: 10.5
[1]; contact time 34 days with 1.5 M HNO3
  Strontium distribution ratio as a function of contact time: 7.7
[1]; contact time 70 days with 1.5 M HNO3
  Strontium distribution ratio as a function of contact time: 9.3
[1]; contact time 278 days with 1.5 M HNO3
  Strontium distribution ratio as a function of contact time: 8.0
[2]; 0.05 M MC-8 solvent, room temperature, several months
  precipitation on storage: no observable precipitation
[2]; MC-8 varied from 0.01 M to 0.05 M in 0.075 M DtBuCH18C6, 0.75 M Cs-7SB, 0.003 M TOA in ISOPAR L
  solubility in the mixed extractant solvent: soluble at these increased concentrations
